Measured values reported in PubChem BioAssay (NCI).
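Grown in 96-well plates, cells were treated for 48 hours with each compound at five concentrations. Insufficient inhibition: endpoint recorded as highest concentration tested. GI50: concentration for 50% inhibition of growth. TGI: concentration producing complete growth inhibition.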

How the values were obtained:
Assay in all cases: growth of human tumour cells (NCI), 48 h
MDA-MB-231 breast = tested on: MDA-MB-231 breast
TK-10 renal = tested on: TK-10 renal
MCF7 breast = tested on: MCF7 breast
SW-620 colon = tested on: SW-620 colon
DU-145 prostate = tested on: DU-145 prostate
A498 renal = tested on: A498 renal
IGROV1 ovarian = tested on: IGROV1 ovarian
HCT-116 colon = tested on: HCT-116 colon
SF-268 CNS = tested on: SF-268 CNS
SF-295 CNS = tested on: SF-295 CNS
PC-3 prostate = tested on: PC-3 prostate
RPMI-8226 leukemia = tested on: RPMI-8226 leukemia
LOX IMVI melanoma = tested on: LOX IMVI melanoma
SK-OV-3 ovarian = tested on: SK-OV-3 ovarian
NCI/ADR-RES ovarian = tested on: NCI/ADR-RES ovarian
KM12 colon = tested on: KM12 colon
MDA-MB-435 = tested on: MDA-MB-435
SK-MEL-28 melanoma = tested on: SK-MEL-28 melanoma
OVCAR-3 ovarian = tested on: OVCAR-3 ovarian
SNB-19 CNS = tested on: SNB-19 CNS
NCI-H522 lung = tested on: NCI-H522 lung
UO-31 renal = tested on: UO-31 renal
SN12C renal = tested on: SN12C renal
UACC-62 melanoma = tested on: UACC-62 melanoma
SK-MEL-5 melanoma = tested on: SK-MEL-5 melanoma
M14 melanoma = tested on: M14 melanoma
SF-539 CNS = tested on: SF-539 CNS
HOP-62 NSCLC = tested on: HOP-62 NSCLC
OVCAR-4 ovarian = tested on: OVCAR-4 ovarian
MALME-3M melanoma = tested on: MALME-3M melanoma
HL-60(TB) leukemia = tested on: HL-60(TB) leukemia
NCI-H23 lung = tested on: NCI-H23 lung
UACC-257 melanoma = tested on: UACC-257 melanoma
SK-MEL-2 melanoma = tested on: SK-MEL-2 melanoma
786-0 renal = tested on: 786-0 renal
A549 NSCLC = tested on: A549 NSCLC
NCI-H226 lung = tested on: NCI-H226 lung
RXF 393 renal = tested on: RXF 393 renal
T-47D breast = tested on: T-47D breast
NCI-H460 lung = tested on: NCI-H460 lung
SR leukemia = tested on: SR leukemia
U251 CNS = tested on: U251 CNS
BT-549 breast = tested on: BT-549 breast
MOLT-4 leukemia = tested on: MOLT-4 leukemia
COLO 205 colon = tested on: COLO 205 colon
HS 578T breast = tested on: HS 578T breast
CCRF-CEM leukemia = tested on: CCRF-CEM leukemia
ACHN renal = tested on: ACHN renal
OVCAR-8 ovarian = tested on: OVCAR-8 ovarian
OVCAR-5 ovarian = tested on: OVCAR-5 ovarian
HCT-15 colon = tested on: HCT-15 colon
SNB-75 CNS = tested on: SNB-75 CNS
K-562 leukemia = tested on: K-562 leukemia
HT29 colon = tested on: HT29 colon
HOP-92 NSCLC = tested on: HOP-92 NSCLC
HCC-2998 colon = tested on: HCC-2998 colon
CAKI-1 renal = tested on: CAKI-1 renal
EKVX NSCLC = tested on: EKVX NSCLC

Structure (SMILES): C/C=C(\C)C(=O)O[C@H]1C=CC(=O)O[C@H]1CC[C@H](O)[C@H](C)O
- GI50 (MDA-MB-231 breast): 12.8 µM
- TGI (MDA-MB-231 breast): 28.3 µM
- GI50 (TK-10 renal): 9.78 µM
- TGI (TK-10 renal): 23.9 µM
- GI50 (MCF7 breast): 2.45 µM
- TGI (MCF7 breast): 11.3 µM
- GI50 (SW-620 colon): 2.64 µM
- TGI (SW-620 colon): 6.08 µM
- GI50 (DU-145 prostate): 13.8 µM
- TGI (DU-145 prostate): 27 µM
- GI50 (A498 renal): 16.4 µM
- TGI (A498 renal): 30.3 µM
- GI50 (IGROV1 ovarian): 4.17 µM
- TGI (IGROV1 ovarian): 19 µM
- GI50 (HCT-116 colon): 1.38 µM
- TGI (HCT-116 colon): 2.82 µM
- GI50 (SF-268 CNS): 2.83 µM
- TGI (SF-268 CNS): 12.3 µM
- GI50 (SF-295 CNS): 13 µM
- TGI (SF-295 CNS): 26.5 µM
- GI50 (PC-3 prostate): 8.46 µM
- TGI (PC-3 prostate): 22.7 µM
- GI50 (RPMI-8226 leukemia): 2.22 µM
- TGI (RPMI-8226 leukemia): 7.54 µM
- GI50 (LOX IMVI melanoma): 2.24 µM
- TGI (LOX IMVI melanoma): 5.66 µM
- GI50 (SK-OV-3 ovarian): 16.2 µM
- TGI (SK-OV-3 ovarian): 31 µM
- GI50 (NCI/ADR-RES ovarian): 15.3 µM
- TGI (NCI/ADR-RES ovarian): 34 µM
- GI50 (KM12 colon): 12.4 µM
- TGI (KM12 colon): 29.1 µM
- GI50 (MDA-MB-435): 3.43 µM
- TGI (MDA-MB-435): 12.7 µM
- GI50 (SK-MEL-28 melanoma): 2.85 µM
- TGI (SK-MEL-28 melanoma): 8.05 µM
- GI50 (OVCAR-3 ovarian): 3.06 µM
- TGI (OVCAR-3 ovarian): 8.79 µM
- GI50 (SNB-19 CNS): 12.3 µM
- TGI (SNB-19 CNS): 26.4 µM
- GI50 (NCI-H522 lung): 2.05 µM
- TGI (NCI-H522 lung): 6.13 µM
- GI50 (UO-31 renal): 9.06 µM
- TGI (UO-31 renal): 23.5 µM
- GI50 (SN12C renal): 8.06 µM
- TGI (SN12C renal): 25.3 µM
- GI50 (UACC-62 melanoma): 6.42 µM
- TGI (UACC-62 melanoma): 17.3 µM
- GI50 (SK-MEL-5 melanoma): 5.13 µM
- TGI (SK-MEL-5 melanoma): 11 µM
- GI50 (M14 melanoma): 6.82 µM
- TGI (M14 melanoma): 21.9 µM
- GI50 (SF-539 CNS): 13.3 µM
- TGI (SF-539 CNS): 27.1 µM
- GI50 (HOP-62 NSCLC): 15.3 µM
- TGI (HOP-62 NSCLC): 29.7 µM
- GI50 (OVCAR-4 ovarian): 6.42 µM
- TGI (OVCAR-4 ovarian): 20.7 µM
- GI50 (MALME-3M melanoma): 4.62 µM
- TGI (MALME-3M melanoma): 16.1 µM
- GI50 (HL-60(TB) leukemia): 0.469 µM
- TGI (HL-60(TB) leukemia): 4.77 µM
- GI50 (NCI-H23 lung): 15.7 µM
- TGI (NCI-H23 lung): 34.2 µM
- GI50 (UACC-257 melanoma): 16.4 µM
- TGI (UACC-257 melanoma): 34.2 µM
- GI50 (SK-MEL-2 melanoma): 8.41 µM
- TGI (SK-MEL-2 melanoma): 27.9 µM
- GI50 (786-0 renal): 5.46 µM
- TGI (786-0 renal): 12.8 µM
- GI50 (A549 NSCLC): 18 µM
- TGI (A549 NSCLC): 36.3 µM
- GI50 (NCI-H226 lung): 4.14 µM
- TGI (NCI-H226 lung): 16.6 µM
- GI50 (RXF 393 renal): 2 µM
- TGI (RXF 393 renal): 5.4 µM
- GI50 (T-47D breast): 2.34 µM
- TGI (T-47D breast): 10.8 µM
- GI50 (NCI-H460 lung): 11.6 µM
- TGI (NCI-H460 lung): 25.4 µM
- GI50 (SR leukemia): 15.1 µM
- TGI (SR leukemia): 45.7 µM
- GI50 (U251 CNS): 4.64 µM
- TGI (U251 CNS): 17.4 µM
- GI50 (BT-549 breast): 6.14 µM
- TGI (BT-549 breast): 19.9 µM
- GI50 (MOLT-4 leukemia): 0.522 µM
- TGI (MOLT-4 leukemia): 5.59 µM
- GI50 (COLO 205 colon): 3.22 µM
- TGI (COLO 205 colon): 10.1 µM
- GI50 (HS 578T breast): 6.8 µM
- TGI (HS 578T breast): 18.1 µM
- TGI (CCRF-CEM leukemia): 0.335 µM
- GI50 (ACHN renal): 6.42 µM
- TGI (ACHN renal): 19.7 µM
- GI50 (OVCAR-8 ovarian): 12.8 µM
- TGI (OVCAR-8 ovarian): 30.7 µM
- GI50 (OVCAR-5 ovarian): 16.9 µM
- TGI (OVCAR-5 ovarian): 32.1 µM
- GI50 (HCT-15 colon): 3.41 µM
- TGI (HCT-15 colon): 12.7 µM
- GI50 (SNB-75 CNS): 8.98 µM
- TGI (SNB-75 CNS): 22.7 µM
- GI50 (K-562 leukemia): 2.3 µM
- TGI (K-562 leukemia): 8.72 µM
- GI50 (HT29 colon): 2.38 µM
- TGI (HT29 colon): 6.65 µM
- GI50 (HOP-92 NSCLC): 6.3 µM
- TGI (HOP-92 NSCLC): 16.1 µM
- GI50 (HCC-2998 colon): 12.3 µM
- TGI (HCC-2998 colon): 26.3 µM
- GI50 (CAKI-1 renal): 7.12 µM
- TGI (CAKI-1 renal): 13.1 µM
- GI50 (EKVX NSCLC): 15.8 µM
- TGI (EKVX NSCLC): 30.5 µM
